Target: T1, ITK (Homo sapiens, UniProt Q08881)
T1 construct: Compounds provided herein were assayed in vitro with ITK HiBit cell lines; endogenous in cells; host or cells: Molt4 (ATCC CRL-1552 [sic]), monoclonal clone 1C10
T1 sequence (Q08881 1-620): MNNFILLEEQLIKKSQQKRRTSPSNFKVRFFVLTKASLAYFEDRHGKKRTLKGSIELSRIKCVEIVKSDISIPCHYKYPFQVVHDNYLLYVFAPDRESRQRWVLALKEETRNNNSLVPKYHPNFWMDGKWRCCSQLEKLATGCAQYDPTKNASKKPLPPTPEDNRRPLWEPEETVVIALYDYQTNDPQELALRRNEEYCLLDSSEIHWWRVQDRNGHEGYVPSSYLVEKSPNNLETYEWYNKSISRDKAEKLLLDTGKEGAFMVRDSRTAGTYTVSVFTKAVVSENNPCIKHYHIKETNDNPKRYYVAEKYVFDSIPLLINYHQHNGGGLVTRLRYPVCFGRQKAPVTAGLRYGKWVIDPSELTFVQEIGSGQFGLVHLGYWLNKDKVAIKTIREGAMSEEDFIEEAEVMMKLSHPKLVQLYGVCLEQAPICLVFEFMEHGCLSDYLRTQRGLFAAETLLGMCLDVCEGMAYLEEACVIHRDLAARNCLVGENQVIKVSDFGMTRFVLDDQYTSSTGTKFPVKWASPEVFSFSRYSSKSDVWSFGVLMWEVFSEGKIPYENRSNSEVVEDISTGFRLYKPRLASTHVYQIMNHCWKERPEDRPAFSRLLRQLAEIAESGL
Assay: ITK Degradation HiBiT Assay
Type: cell-based
Conditions: C-terminal HiBiT-tagged Molt4 cells, 4 hrs incubation; for Dmax: MOLT-4, read-out: HiBiT DMax (%)
Description: Compounds provided herein were assayed in vitro with ITK HiBit cell lines. Compound dilution series (11-point, 5 fold dilutions in DMSO, columns 2-12 with replicate in rows A/B, C/D, E/F, G, H at 2000× the final required concentrations were prepared in 96 well plate (Falcon, cat. no. 353077). Column 1, rows A-H were control DMSO. The 2000× solutions ranged from 2 mM to 1.024 nM (final assay concentration range 1 μM to […]). The 2000× solutions were added to cells in […], for a final DMSO concentration of 0.5% and final assay compound concentration of 1×. For the cells, C-terminal HiBiT-tagged Molt4 cells (ATCC CRL-1552, monoclonal cell line clone 1C10) were plated at 1×10^6 cells/mL, 100 μL/well ([…]) in complete RPMI (10% FBS, 1% L-glutamine). The cells were incubated with compound 32 and compound 30 for 4 hrs at 32° C./6% CO2.
Following incubation, 100 μL of complete Nano-Glo HiBiT Lytic Detection Reagent (Nano-Glo HiBiT Lytic Buffer with 1:50 Nano-Glo HiBiT Lytic Substrate and 1:100 LgBiT Protein; Promega cat. no. N3O40) was added. Cells were further incubated for 10 min at room temperature (RT). Luminescence units (LU) were read on an EnVision plate reader (Perkin Elmer, 0.1 sec per well). Percent ITK remaining per sample was calculated as follows: […]
Using Graphpad Prism, % ITK remaining values were plotted as a function of compound concentration. To determine DC50 and Dmax values, resulting curves were fit to the Prism curve-fitting equation “log(inhibitor) vs response−Variable slope (four parameters)” (reported best fit value IC50 used as DC50). ITK was measured with antibody-based MSD (Meso-Scale Discovery) assays shown below.

Row | SMILES | Dmax | DC50
1 | CN(C(=O)C1CCN(CC2CCN(c3ccc(C4CCC(=O)NC4=O)cn3)CC2)CC1)c1ccc2cc(-c3n[nH]c4c3C[C@@H]3C(F)(F)[C@]3(C)C4)[nH]c2c1 (stereo partly drawn) [Compound 5, N-(2-((4aS,5aR)-5,5-difluoro-5a-methyl-1,4,4a,5,5a,6-hexahydrocyclopropa[f]indazol-3-yl)-1H-indol-6-yl)-1-((1-(5-(2,6-dioxopiperidin-3-yl)pyridin-2-yl)piperidin-4-yl)methyl)-N-methylpiperidine-4-carboxamide] | 85% | –
2 | C[C@@]12Cc3[nH]nc(C(=O)Nc4cnn(C5CN(CC6CCN(c7ccc(C8CCC(=O)NC8=O)cn7)CC6)C5)c4)c3C[C@@H]1C2(F)F (stereo partly drawn) [Compound 12, (4aS,5aR)—N-(1-(1-((1-(5-(2,6-dioxopiperidin-3-yl)pyridin-2-yl)piperidin-4-yl)methyl)azetidin-3-yl)-1H-pyrazol-4-yl)-5,5-difluoro-5a-methyl-1,4,4a,5,5a,6-hexahydrocyclopropa[f]indazole-3-carboxamide] | 85% | 0.25 nM
3 | C[C@@]12Cc3[nH]nc(C(=O)Nc4cnn(C5CN(C(=O)C6CCN(c7ccc(C8CCC(=O)NC8=O)cn7)CC6)C5)c4)c3C[C@@H]1C2(F)F (stereo partly drawn) [Compound 13, (4aS,5aR)—N-(1-(1-(1-(5-(2,6-dioxopiperidin-3-yl)pyridin-2-yl)piperidine-4-carbonyl)azetidin-3-yl)-1H-pyrazol-4-yl)-5,5-difluoro-5a-methyl-1,4,4a,5,5a,6-hexahydrocyclopropa[f]indazole-3-carboxamide] | 91% | 1.3 nM
4 | C[C@@]12Cc3[nH]nc(C(=O)Nc4cnn(C5CN(C(=O)C6CN(c7ccc(C8CCC(=O)NC8=O)cn7)C6)C5)c4)c3C[C@@H]1C2(F)F (stereo partly drawn) [Compound 14, (4aS,5aR)—N-(1-(1-(1-(5-(2,6-dioxopiperidin-3-yl)pyridin-2-yl)azetidine-3-carbonyl)azetidin-3-yl)-1H-pyrazol-4-yl)-5,5-difluoro-5a-methyl-1,4,4a,5,5a,6-hexahydrocyclopropa[f]indazole-3-carboxamide] | 78% | –
5 | C[C@@]12Cc3[nH]nc(-c4cc5ccc(N6CCC7(CCN(C(=O)C8CCN(c9ccc(C%10CCC(=O)NC%10=O)cn9)CC8)CC7)C6=O)cc5[nH]4)c3C[C@@H]1C2(F)F (stereo partly drawn) [Compound 16, 3-(6-(4-(2-(2-((4aS,5aR)-5,5-difluoro-5a-methyl-1,4,4a,5,5a,6-hexahydrocyclopropa[f]indazol-3-yl)-1H-indol-6-yl)-1-oxo-2,8-diazaspiro[4.5]decane-8-carbonyl)piperidin-1-yl)pyridin-3-yl)piperidine-2,6-dione] | 90% | –
6 | C[C@@]12Cc3[nH]nc(-c4cc5ccc(N6CCC7(CCN(CCC8CCN(c9ccc(C%10CCC(=O)NC%10=O)cn9)CC8)CC7)C6=O)cc5[nH]4)c3C[C@@H]1C2(F)F (stereo partly drawn) [Compound 17, 3-(6-(4-(2-(2-(2-((4aS,5aR)-5,5-difluoro-5a-methyl-1,4,4a,5,5a,6-hexahydrocyclopropa[f]indazol-3-yl)-1H-indol-6-yl)-1-oxo-2,8-diazaspiro[4.5]decan-8-yl)ethyl)piperidin-1-yl)pyridin-3-yl)piperidine-2,6-dione] | 89% | < 0.01 nM
7 | CN(C(=O)c1ccc2cc(-c3n[nH]c4c3CCC(C)(C)C4)[nH]c2c1)C1CCN(CC2CCN(c3ccc(C4CCC(=O)NC4=O)cn3)CC2)CC1 (stereo not drawn) [Compound 18, 2-(6,6-dimethyl-4,5,6,7-tetrahydro-1H-indazol-3-yl)-N-(1-((1-(5-(2,6-dioxopiperidin-3-yl)pyridin-2-yl)piperidin-4-yl)methyl)piperidin-4-yl)-N-methyl-1H-indole-6-carboxamide] | 87% | 0.68 nM
8 | CC1(C)CCc2c(-c3cc4ccc(C(=O)N5CCC(CC6CCN(c7ccc(C8CCC(=O)NC8=O)cn7)CC6)CC5)cc4[nH]3)n[nH]c2C1 (stereo not drawn) [Compound 19, 3-(6-(4-((1-(2-(6,6-dimethyl-4,5,6,7-tetrahydro-1H-indazol-3-yl)-1H-indole-6-carbonyl)piperidin-4-yl)methyl)piperidin-1-yl)pyridin-3-yl)piperidine-2,6-dione] | 73% | –
9 | C[C@@]12Cc3[nH]nc(-c4cc5ccc(C(=O)N6CCN(CC7CCN(c8ccc(C9CCC(=O)NC9=O)cn8)CC7)CC6)cc5[nH]4)c3C[C@@H]1C2(F)F (stereo partly drawn) [Compound 20, 3-(6-(4-((4-(2-((4aS,5aR)-5,5-difluoro-5a-methyl-1,4,4a,5,5a,6-hexahydrocyclopropa[f]indazol-3-yl)-1H-indole-6-carbonyl)piperazin-1-yl)methyl)piperidin-1-yl)pyridin-3-yl)piperidine-2,6-dione] | 83% | < 0.001 nM
10 | C[C@@]12Cc3[nH]nc(C(=O)Nc4cnn([C@H](c5ccccc5)C5CN(C(=O)C6CN(c7ccc(C8CCC(=O)NC8=O)cn7)C6)C5)c4)c3C[C@@H]1C2(F)F (stereo partly drawn) [Compound 21, (4aS,5aR)—N-(1-((1S)-(1-(1-(5-(2,6-dioxopiperidin-3-yl)pyridin-2-yl)azetidine-3-carbonyl)azetidin-3-yl)(phenyl)methyl)-1H-pyrazol-4-yl)-5,5-difluoro-5a-methyl-1,4,4a,5,5a,6-hexahydrocyclopropa[f]indazole-3-carboxamide] | 83% | < 0.01 nM
11 | CN(C(=O)CCC1CCN(c2ccc(C3CCC(=O)NC3=O)cn2)C1)c1ccc2cc(-c3n[nH]c4c3C[C@@H]3C(F)(F)[C@]3(C)C4)[nH]c2c1 (stereo partly drawn) [Compound 25, N-(2-((4aS,5aR)-5,5-difluoro-5a-methyl-1,4,4a,5,5a,6-hexahydrocyclopropa[f]indazol-3-yl)-1H-indol-6-yl)-3-(1-(5-(2,6-dioxopiperidin-3-yl)pyridin-2-yl)pyrrolidin-3-yl)-N-methylpropanamide] | 48% | –
12 | CN(C(=O)C1CCN(C(=O)c2ccc3cc(-c4n[nH]c5c4CCC(C)(C)C5)[nH]c3c2)CC1)C1CCN(c2ccc(C3CCC(=O)NC3=O)cn2)CC1 (stereo not drawn) [Compound 33, 1-(2-(6,6-dimethyl-4,5,6,7-tetrahydro-1H-indazol-3-yl)-1H-indole-6-carbonyl)-N-(1-(5-(2,6-dioxopiperidin-3-yl)pyridin-2-yl)piperidin-4-yl)-N-methylpiperidine-4-carboxamide] | 80% | 0.04 nM
13 | CC1(C)CCc2c(-c3cc4ccc(C(=O)N5CCN(CCC#Cc6ccc(C7CCC(=O)NC7=O)cc6)CC5)cc4[nH]3)n[nH]c2C1 (stereo not drawn) [Compound 34, 3-(4-(4-(4-(2-(6,6-dimethyl-4,5,6,7-tetrahydro-1H-indazol-3-yl)-1H-indole-6-carbonyl)piperazin-1-yl)but-1-yn-1-yl)phenyl)piperidine-2,6-dione] | 60% | 2.6 nM
14 | CC1(C)CCc2c(-c3cc4ccc(C(=O)N5CCN(CCCCc6ccc(C7CCC(=O)NC7=O)cc6)CC5)cc4[nH]3)n[nH]c2C1 (stereo not drawn) [Compound 40, 3-(4-(4-(4-(2-(6,6-dimethyl-4,5,6,7-tetrahydro-1H-indazol-3-yl)-1H-indole-6-carbonyl)piperazin-1-yl)butyl)phenyl)piperidine-2,6-dione] | 68% | 15 nM
15 | CC1(C)CCc2c(-c3cc4ccc(C(=O)N5CCC(CN6CCN(c7cccc(C8CCC(=O)NC8=O)n7)CC6)CC5)cc4[nH]3)n[nH]c2C1 (stereo not drawn) [Compound 41] | 27% | –
